Experimental data reported in PubChem BioAssay AID1963960 (Molecular Pharmacology Branch, DTP, NCI, 2024).
Several values for one entry are separate records, joined by “and”; a condition that tells them apart may be missing. Equal entries are not always repeated.

Test system: MDA-MB-468 spheroids with HUVEC/MSC, viability
Experiment: Anticancer human tumor MDA-MB-468 cell line growth inhibition [PI3K];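 also: spheroids exposed to agents for seven days before readout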;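 as to viability, T/C: 100% = DMSO vehicle control viability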
Settings: for viability, T/C: stronger effect = lower value
How it was run: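 Tumor cells grown as multi-cell spheroids with HUVEC endothelial cells and MSC fibroblast-like stroma were treated with targeted agents combined with inavolisib, alpelisib, duvelisib or copanlisib. Doses fell in half-log steps from near clinical Cmax, else from 10 microM. Viability was measured.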

[1] = curve of first compound, second compound 0.0316 µM
[2] = curve of first compound, second compound 0.1 µM
[3] = curve of first compound, second compound 0.316 µM
[4] = curve of first compound, second compound 1 µM
[5] = curve of first compound, second compound 3.16 µM
[6] = curve of first compound, second compound 10 µM
[7] = second compound 0.0316 µM, first compound 0.0316 µM
[8] = second compound 0.0316 µM, first compound 0.1 µM
[9] = second compound 0.0316 µM, first compound 0.316 µM
[10] = second compound 0.0316 µM, first compound 1 µM
[11] = second compound 0.0316 µM, first compound 3.16 µM
[12] = second compound 0.0316 µM, first compound 10 µM
[13] = second compound 0.1 µM, first compound 0.0316 µM
[14] = second compound 0.1 µM, first compound 0.1 µM
[15] = second compound 0.1 µM, first compound 0.316 µM
[16] = second compound 0.1 µM, first compound 1 µM
[17] = second compound 0.1 µM, first compound 3.16 µM
[18] = second compound 0.1 µM, first compound 10 µM
[19] = second compound 0.316 µM, first compound 0.0316 µM
[20] = second compound 0.316 µM, first compound 0.1 µM
[21] = second compound 0.316 µM, first compound 0.316 µM
[22] = second compound 0.316 µM, first compound 1 µM
[23] = second compound 0.316 µM, first compound 3.16 µM
[24] = second compound 0.316 µM, first compound 10 µM
[25] = second compound 1 µM, first compound 0.0316 µM
[26] = second compound 1 µM, first compound 0.1 µM
[27] = second compound 1 µM, first compound 0.316 µM
[28] = second compound 1 µM, first compound 1 µM
[29] = second compound 1 µM, first compound 3.16 µM
[30] = second compound 1 µM, first compound 10 µM
[31] = second compound 3.16 µM, first compound 0.0316 µM
[32] = second compound 3.16 µM, first compound 0.1 µM
[33] = second compound 3.16 µM, first compound 0.316 µM
[34] = second compound 3.16 µM, first compound 1 µM
[35] = second compound 3.16 µM, first compound 3.16 µM
[36] = second compound 3.16 µM, first compound 10 µM
[37] = second compound 10 µM, first compound 0.0316 µM
[38] = second compound 10 µM, first compound 0.1 µM
[39] = second compound 10 µM, first compound 0.316 µM
[40] = second compound 10 µM, first compound 1 µM
[41] = second compound 10 µM, first compound 3.16 µM
[42] = second compound 10 µM, first compound 10 µM

Structure (SMILES): C#Cc1c(F)ccc2cc(O)cc(-c3ncc4c(N5CC6CCC(C5)N6)nc(OCC56CCCN5CC(F)C6)nc4c3F)c12 (centres undefined) + CC(Nc1ncnc2nc[nH]c12)c1cc2cccc(Cl)c2c(=O)n1-c1ccccc1
- IC50 [1]: > 10 µM
- IC50 [2]: > 10 µM
- IC50 [3]: > 10 µM
- IC50 [4]: > 10 µM
- IC50 [5]: 4.95 µM
- IC50 [6]: < 0.0316 µM
- viability, T/C [7]: 104%
- viability, T/C [8]: 94.7%
- viability, T/C [9]: 92.3%
- viability, T/C [10]: 92.3%
- viability, T/C [11]: 90.5%
- viability, T/C [12]: 62.8%
- viability, T/C [13]: 96.5%
- viability, T/C [14]: 91.2%
- viability, T/C [15]: 88.6%
- viability, T/C [16]: 90.4%
- viability, T/C [17]: 81.2%
- viability, T/C [18]: 57.1%
- viability, T/C [19]: 78.7%
- viability, T/C [20]: 67.7%
- viability, T/C [21]: 70.8%
- viability, T/C [22]: 83.6%
- viability, T/C [23]: 75.2%
- viability, T/C [24]: 54.5%
- viability, T/C [25]: 68%
- viability, T/C [26]: 72.8%
- viability, T/C [27]: 63.7%
- viability, T/C [28]: 70.5%
- viability, T/C [29]: 62%
- viability, T/C [30]: 52.1%
- viability, T/C [31]: 63.4%
- viability, T/C [32]: 57.5%
- viability, T/C [33]: 55.3%
- viability, T/C [34]: 60%
- viability, T/C [35]: 54.3%
- viability, T/C [36]: 43%
- viability, T/C [37]: 39.2%
- viability, T/C [38]: 39.8%
- viability, T/C [39]: 35.5%
- viability, T/C [40]: 40.4%
- viability, T/C [41]: 38.6%
- viability, T/C [42]: 28.2%

Structure (SMILES): CCCS(=O)(=O)Nc1ccc(F)c(C(=O)c2c[nH]c3ncc(-c4ccc(Cl)cc4)cc23)c1F + Cc1nc(NC(=O)N2CCCC2C(N)=O)sc1-c1ccnc(C(C)(C)C(F)(F)F)c1
- IC50 [1]: 5.12 µM
- IC50 [2]: 3.97 µM
- IC50 [3]: 3.55 µM
- IC50 [4]: 1.44 µM
- IC50 [5]: 1.78 µM
- IC50 [6]: < 0.0316 µM
- viability, T/C [7]: 89.5%
- viability, T/C [8]: 95.7%
- viability, T/C [9]: 91.2%
- viability, T/C [10]: 104%
- viability, T/C [11]: 76.8%
- viability, T/C [12]: 12.9%
- viability, T/C [13]: 92.8%
- viability, T/C [14]: 97.5%
- viability, T/C [15]: 93.6%
- viability, T/C [16]: 97%
- viability, T/C [17]: 59.5%
- viability, T/C [18]: 11.6%
- viability, T/C [19]: 103%
- viability, T/C [20]: 86.5%
- viability, T/C [21]: 80.5%
- viability, T/C [22]: 105%
- viability, T/C [23]: 54.6%
- viability, T/C [24]: 9.77%
- viability, T/C [25]: 113%
- viability, T/C [26]: 76.1%
- viability, T/C [27]: 63.9%
- viability, T/C [28]: 70.8%
- viability, T/C [29]: 49.3%
- viability, T/C [30]: 9.67%
- viability, T/C [31]: 72.3%
- viability, T/C [32]: 61%
- viability, T/C [33]: 67.9%
- viability, T/C [34]: 62.9%
- viability, T/C [35]: 36.9%
- viability, T/C [36]: 10%
- viability, T/C [37]: 43%
- viability, T/C [38]: 28.2%
- viability, T/C [39]: 36.4%
- viability, T/C [40]: 31.1%
- viability, T/C [41]: 26.2%
- viability, T/C [42]: 7.64%

Structure (SMILES): CC(C)NCC(C(=O)N1CCN(c2ncnc3c2C(C)CC3O)CC1)c1ccc(Cl)cc1 (centres undefined)
- viability, T/C (compound 0.0316 µM): 89.5% [middle of 4 runs]
- viability, T/C (compound 0.1 µM): 81.3% [middle of 4 runs]
- viability, T/C (compound 1 µM): 54.2% [middle of 4 runs]
- viability, T/C (compound 3.16 µM): 32.4% [middle of 4 runs]
- viability, T/C (compound 10 µM): 26.4% and 22.6% (2×) and 27%
- IC50 (curve of compound): 1.29 µM [middle of 4 runs]

Structure (SMILES): CC(=O)c1c(C)c2cnc(Nc3ccc(N4CCNCC4)cn3)nc2n(C2CCCC2)c1=O + Cc1nc(NC(=O)N2CCCC2C(N)=O)sc1-c1ccnc(C(C)(C)C(F)(F)F)c1
- IC50 [1]: > 0.1 µM
- IC50 [2]: > 0.1 µM
- IC50 [3]: > 0.1 µM
- IC50 [4]: > 0.1 µM
- IC50 [5]: > 0.1 µM
- IC50 [6]: < 0.000316 µM
- viability, T/C (second compound 0.0316 µM, first compound 0.000316 µM): 91.5%
- viability, T/C (second compound 0.0316 µM, first compound 0.001 µM): 92.1%
- viability, T/C (second compound 0.0316 µM, first compound 0.00316 µM): 74.8%
- viability, T/C (second compound 0.0316 µM, first compound 0.01 µM): 93.4%
- viability, T/C [7]: 70.7%
- viability, T/C [8]: 70.2%
- viability, T/C (second compound 0.1 µM, first compound 0.000316 µM): 88.3%
- viability, T/C (second compound 0.1 µM, first compound 0.001 µM): 92.2%
- viability, T/C (second compound 0.1 µM, first compound 0.00316 µM): 86.5%
- viability, T/C (second compound 0.1 µM, first compound 0.01 µM): 97%
- viability, T/C [13]: 61.6%
- viability, T/C [14]: 67.2%
- viability, T/C (second compound 0.316 µM, first compound 0.000316 µM): 96.2%
- viability, T/C (second compound 0.316 µM, first compound 0.001 µM): 95%
- viability, T/C (second compound 0.316 µM, first compound 0.00316 µM): 74.8%
- viability, T/C (second compound 0.316 µM, first compound 0.01 µM): 91.9%
- viability, T/C [19]: 72.5%
- viability, T/C [20]: 67.6%
- viability, T/C (second compound 1 µM, first compound 0.000316 µM): 90.1%
- viability, T/C (second compound 1 µM, first compound 0.001 µM): 75.7%
- viability, T/C (second compound 1 µM, first compound 0.00316 µM): 73.5%
- viability, T/C (second compound 1 µM, first compound 0.01 µM): 75.2%
- viability, T/C [25]: 75.6%
- viability, T/C [26]: 76.8%
- viability, T/C (second compound 3.16 µM, first compound 0.000316 µM): 74.9%
- viability, T/C (second compound 3.16 µM, first compound 0.001 µM): 60.4%
- viability, T/C (second compound 3.16 µM, first compound 0.00316 µM): 57.5%
- viability, T/C (second compound 3.16 µM, first compound 0.01 µM): 68.8%
- viability, T/C [31]: 55.4%
- viability, T/C [32]: 55.2%
- viability, T/C (second compound 10 µM, first compound 0.000316 µM): 32.1%
- viability, T/C (second compound 10 µM, first compound 0.001 µM): 24.2%
- viability, T/C (second compound 10 µM, first compound 0.00316 µM): 31.2%
- viability, T/C (second compound 10 µM, first compound 0.01 µM): 28.6%
- viability, T/C [37]: 29.5%
- viability, T/C [38]: 27.6%

Structure (SMILES): CC(Cn1ccc(-c2ccc(C#N)c(Cl)c2)n1)NC(=O)c1cc(C(C)O)[nH]n1 (centres undefined) + CC(Nc1ccc2c(c1)OCCn1cc(N3C(=O)OCC3C(F)F)nc1-2)C(N)=O
- IC50 (curve of first compound, second compound 0.00316 µM): > 10 µM
- IC50 (curve of first compound, second compound 0.01 µM): > 10 µM
- IC50 [1]: > 10 µM
- IC50 [2]: > 10 µM
- IC50 [3]: > 10 µM
- IC50 [4]: > 10 µM
- viability, T/C (second compound 0.00316 µM, first compound 0.0316 µM): 104%
- viability, T/C (second compound 0.00316 µM, first compound 0.1 µM): 84.3%
- viability, T/C (second compound 0.00316 µM, first compound 0.316 µM): 107%
- viability, T/C (second compound 0.00316 µM, first compound 1 µM): 99.4%
- viability, T/C (second compound 0.00316 µM, first compound 3.16 µM): 101%
- viability, T/C (second compound 0.00316 µM, first compound 10 µM): 88.6%
- viability, T/C (second compound 0.01 µM, first compound 0.0316 µM): 102%
- viability, T/C (second compound 0.01 µM, first compound 0.1 µM): 93.8%
- viability, T/C (second compound 0.01 µM, first compound 0.316 µM): 79.3%
- viability, T/C (second compound 0.01 µM, first compound 1 µM): 90%
- viability, T/C (second compound 0.01 µM, first compound 3.16 µM): 94.6%
- viability, T/C (second compound 0.01 µM, first compound 10 µM): 77.8%
- viability, T/C [7]: 101%
- viability, T/C [8]: 79.7%
- viability, T/C [9]: 92.5%
- viability, T/C [10]: 90%
- viability, T/C [11]: 88.4%
- viability, T/C [12]: 72.1%
- viability, T/C [13]: 114%
- viability, T/C [14]: 82.2%
- viability, T/C [15]: 80.4%
- viability, T/C [16]: 102%
- viability, T/C [17]: 94.8%
- viability, T/C [18]: 65%
- viability, T/C [19]: 88.5%
- viability, T/C [20]: 77.7%
- viability, T/C [21]: 96.1%
- viability, T/C [22]: 85.1%
- viability, T/C [23]: 69.9%
- viability, T/C [24]: 64.5%
- viability, T/C [25]: 93%
- viability, T/C [26]: 72.7%
- viability, T/C [27]: 89%
- viability, T/C [28]: 78.8%
- viability, T/C [29]: 66.5%
- viability, T/C [30]: 68%
